Common to all, as to assay type: functional
The test system of assay [1] is Digitaria sanguinalis. As to the kind of experiment: Herbicidal activity against hairy Digitaria sanguinalis (hairy crabgrass) assessed as inhibition of herb growth at 1.5 kg/ha during postemergence treatment protocol. Conditions: post-emergence, read-out: GI.
The subject of assay [2] is Digitaria sanguinalis. Put plainly: Herbicidal activity against hairy Digitaria sanguinalis (hairy crabgrass) assessed as inhibition of herb growth at 1.5 kg/ha during preemergence treatment protocol. The note with it: pre-emergence, read-out: GI.
The test system of assay [3] is Medicago sativa. Put plainly: Herbicidal activity against Medicago sativa (alfalfa) assessed as inhibition of herb growth at 1.5 kg/ha during preemergence treatment protocol. Conditions: pre-emergence, read-out: GI.
Assay [4] relates to Brassica napus. Put plainly: Herbicidal activity against Brassica napus (oilseed rape) assessed as inhibition of herb growth at 1.5 kg/ha during postemergence treatment protocol. Conditions: post-emergence, read-out: GI.
Assay [5] relates to Medicago sativa. Put plainly: Herbicidal activity against Medicago sativa (alfalfa) assessed as inhibition of herb growth at 1.5 kg/ha during postemergence treatment protocol. Conditions: post-emergence, read-out: GI.
The subject of assay [6] is Amaranthus retroflexus. Put plainly: Herbicidal activity against Amaranthus retroflexus assessed as inhibition of herb growth at 1.5 kg/ha during preemergence treatment protocol. Conditions: pre-emergence, read-out: GI.
The test system of a further assay is Cucumis sativus. Put plainly: Plant growth regulatory activity in Cucumis sativus (cucumber) seeds assessed as stimulation of radicle growth level at 10 mg/mL.
Assay [7] has as its system Amaranthus retroflexus. As to the kind of experiment: Herbicidal activity against Amaranthus retroflexus assessed as inhibition of herb growth at 1.5 kg/ha during postemergence treatment protocol. Conditions: post-emergence, read-out: GI.
Assay [8] relates to Brassica napus. As to the kind of experiment: Herbicidal activity against Brassica napus (oilseed rape) assessed as inhibition of herb growth at 1.5 kg/ha during preemergence treatment protocol. The note with it: pre-emergence, read-out: GI.

We go through 19 compounds from ChEMBL document CHEMBL3045368, “Design, synthesis, and biological activities of novel 2-cyanoacrylates containing oxazole, oxadiazole, or quinoline moieties” (2009).

With `CCOCCOC(=O)/C(C#N)=C(\NCc1ccc2ccccc2n1)C(C)C`, the inhibition of growth at 1500 g/ha with Digitaria sanguinalis [1] was 50.6%; in the assay with Digitaria sanguinalis [2] it was 0%; in the assay with Medicago sativa [3], 0%; in the assay on Brassica napus [4] it was 72%; in the assay on Medicago sativa [5], 0%; in the assay on Amaranthus retroflexus [6], 0%. Besides, the figures for the inhibition of growth at 1500 g/ha in the assay on Amaranthus retroflexus [7] and with Brassica napus [8] were 77.8% and 0%, respectively. In the assay with Cucumis sativus, the Activity is 115%.
For `CCOCCOC(=O)/C(C#N)=C(\NCc1ccc2ncccc2c1)SC`, the inhibition of growth at 1500 g/ha with Digitaria sanguinalis [1] was 66.2%; in the assay on Digitaria sanguinalis [2], 10%; in the assay with Medicago sativa [3] it was 0%; in the assay on Brassica napus [4], 100%; in the assay with Medicago sativa [5], 0%; with Amaranthus retroflexus [6], 0%. In addition, the values for the inhibition of growth at 1500 g/ha with Amaranthus retroflexus [7] and in the assay on Brassica napus [8] were 100% and 10%, respectively. Moreover, the Activity in the assay with Cucumis sativus is 145%.
Take `CCOCCOC(=O)/C(C#N)=C(\NCc1ccc2ncccc2c1)C(C)C`: the inhibition of growth at 1500 g/ha in the assay with Digitaria sanguinalis [1] was 0%; in the assay on Digitaria sanguinalis [2] it was 0%; with Medicago sativa [3] it was 0%; in the assay with Brassica napus [4], 73.7%; with Medicago sativa [5], 10%; in the assay on Amaranthus retroflexus [6], 0%. The inhibition of growth at 1500 g/ha in the assay with Amaranthus retroflexus [7] and with Brassica napus [8] was 0% throughout. Further, the Activity with Cucumis sativus was 85%.
For `CCOCCOC(=O)/C(C#N)=C(\NCc1cnc2ccccc2c1)C(C)C`, the inhibition of growth at 1500 g/ha in the assay with Digitaria sanguinalis [1] was found to be 45.5%; in the assay on Digitaria sanguinalis [2], 0%; with Medicago sativa [3], 0%; in the assay with Brassica napus [4] it was 100%; with Medicago sativa [5], 0%; in the assay on Amaranthus retroflexus [6], 41.9%. In addition, the inhibition of growth at 1500 g/ha in the assay with Amaranthus retroflexus [7] was 100%; in the assay on Brassica napus [8], 18.2%. Further, the Activity in the assay with Cucumis sativus is reported as 85%.
Regarding `CCOCCOC(=O)/C(C#N)=C(\NCc1cnc2ccccc2c1)SC`, the inhibition of growth at 1500 g/ha turned out to be 48.1% with Digitaria sanguinalis [1]; 0% in the assay on Digitaria sanguinalis [2]; 10% in the assay on Medicago sativa [3]; 100% with Brassica napus [4]; 67.8% with Medicago sativa [5]; 35.5% in the assay with Amaranthus retroflexus [6]. The inhibition of growth at 1500 g/ha is 100% in the assay with Amaranthus retroflexus [7] and 74.9% in the assay with Brassica napus [8]. Moreover, in the assay with Cucumis sativus, the Activity is 110%.
As to `CCOCCOC(=O)/C(C#N)=C(\NCc1coc(-c2ccccc2)n1)SC`, the inhibition of growth at 1500 g/ha was 0% in the assay on Digitaria sanguinalis [1]; 0% in the assay with Digitaria sanguinalis [2]; 5% in the assay with Medicago sativa [3]; 34.7% in the assay on Brassica napus [4]; 0% in the assay on Medicago sativa [5]; 5% in the assay with Amaranthus retroflexus [6]. The inhibition of growth at 1500 g/ha was 0% with Amaranthus retroflexus [7] and 5% in the assay on Brassica napus [8]. In addition, the Activity with Cucumis sativus stood at 50%.
Regarding `CCOCCOC(=O)/C(C#N)=C(\NCc1coc(-c2ccccc2)n1)C(C)C`, the inhibition of growth at 1500 g/ha was found to be 87% with Digitaria sanguinalis [1]; 5% in the assay on Digitaria sanguinalis [2]; 0% in the assay with Medicago sativa [3]; 87.3% in the assay with Brassica napus [4]; 0% in the assay with Medicago sativa [5]; 10% in the assay with Amaranthus retroflexus [6]. In addition, the inhibition of growth at 1500 g/ha in the assay on Amaranthus retroflexus [7] was determined as 71.4%; in the assay on Brassica napus [8], 0%. Moreover, the Activity in the assay with Cucumis sativus amounted to 60%.
As to `CCOCCOC(=O)/C(C#N)=C(\NCc1coc(-c2cccc(Cl)c2)n1)SC`, the inhibition of growth at 1500 g/ha with Digitaria sanguinalis [1] turned out to be 6.5%; in the assay with Digitaria sanguinalis [2], 0%; in the assay with Medicago sativa [3], 10%; with Brassica napus [4], 25.4%; with Medicago sativa [5], 0%; in the assay with Amaranthus retroflexus [6] it was 0%. In addition, the inhibition of growth at 1500 g/ha in the assay on Amaranthus retroflexus [7] and in the assay with Brassica napus [8] was 0% in each case. Also, in the assay with Cucumis sativus, the Activity stood at 80%.
In the case of `CCOCCOC(=O)/C(C#N)=C(\NCc1coc(-c2cccc(Cl)c2)n1)C(C)C`, the inhibition of growth at 1500 g/ha in the assay on Digitaria sanguinalis [1] was 0%; in the assay on Digitaria sanguinalis [2], 0%; with Medicago sativa [3], 5%; in the assay on Brassica napus [4] it was 80.5%; in the assay on Medicago sativa [5], 0%; with Amaranthus retroflexus [6], 0%. The inhibition of growth at 1500 g/ha amounted to 84.1% with Amaranthus retroflexus [7] and 15% in the assay on Brassica napus [8].
For the compound `CCOCCOC(=O)/C(C#N)=C(\NCc1ncc(C)o1)SC`, the inhibition of growth at 1500 g/ha was determined as 10% with Digitaria sanguinalis [1]; 0% with Digitaria sanguinalis [2]; 0% in the assay on Medicago sativa [3]; 10% with Brassica napus [4]; 0% in the assay on Medicago sativa [5]; 43.9% in the assay with Amaranthus retroflexus [6]. Further, the inhibition of growth at 1500 g/ha was determined as 100% in the assay with Amaranthus retroflexus [7] and 0% with Brassica napus [8].
With `CCOCCOC(=O)/C(C#N)=C(\NCc1ncc(C(C)C)o1)SC`, the inhibition of growth at 1500 g/ha in the assay with Digitaria sanguinalis [1] stood at 0%; in the assay with Digitaria sanguinalis [2], 0%; in the assay on Medicago sativa [3], 0%; in the assay on Brassica napus [4], 5%; in the assay on Medicago sativa [5], 0%; with Amaranthus retroflexus [6] it was 5%. Moreover, the figures for the inhibition of growth at 1500 g/ha with Amaranthus retroflexus [7] and in the assay on Brassica napus [8] were 26.8% and 10%, respectively. For the same compound, the Activity in the assay with Cucumis sativus was 63.7%.
For `CCOCCOC(=O)/C(C#N)=C(\NCc1ncc(C(C)C)o1)C(C)C`, the inhibition of growth at 1500 g/ha in the assay with Digitaria sanguinalis [1] was found to be 10%; in the assay on Digitaria sanguinalis [2], 0%; with Medicago sativa [3], 0%; in the assay with Brassica napus [4], 100%; with Medicago sativa [5] it was 15%; with Amaranthus retroflexus [6], 0%. The results for the inhibition of growth at 1500 g/ha in the assay with Amaranthus retroflexus [7] and with Brassica napus [8] were 80.5% and 52.7%, respectively. The Activity in the assay on Cucumis sativus was found to be 98.2%.
For the compound `CCOCCOC(=O)/C(C#N)=C(\NCc1nc(-c2ccc(C(F)(F)F)cc2)no1)SC`, the inhibition of growth at 1500 g/ha in the assay with Digitaria sanguinalis [1] was found to be 37.5%; in the assay on Digitaria sanguinalis [2], 0%; with Medicago sativa [3], 0%; in the assay with Brassica napus [4], 100%; with Medicago sativa [5] it was 0%; in the assay with Amaranthus retroflexus [6], 0%. The inhibition of growth at 1500 g/ha in the assay with Amaranthus retroflexus [7] and in the assay on Brassica napus [8] was 0% in each case.
Regarding `CCOCCOC(=O)/C(C#N)=C(\NCc1nc(-c2ccc(C(F)(F)F)cc2)no1)C(C)C`, the inhibition of growth at 1500 g/ha stood at 57.5% in the assay on Digitaria sanguinalis [1]; 10% in the assay with Digitaria sanguinalis [2]; 0% with Medicago sativa [3]; 100% in the assay on Brassica napus [4]; 43.2% with Medicago sativa [5]; 50.3% in the assay with Amaranthus retroflexus [6]. Also, the inhibition of growth at 1500 g/ha with Amaranthus retroflexus [7] worked out at 100%; in the assay on Brassica napus [8], 48.4%.
With `CCOCCOC(=O)/C(C#N)=C(\NCc1nc(-c2ccc(F)cc2)no1)SC`, the inhibition of growth at 1500 g/ha in the assay on Digitaria sanguinalis [1] was 10%; in the assay on Digitaria sanguinalis [2], 0%; with Medicago sativa [3], 0%; with Brassica napus [4] it was 15%; in the assay with Medicago sativa [5], 0%; in the assay on Amaranthus retroflexus [6], 0%. Moreover, the figures for the inhibition of growth at 1500 g/ha in the assay on Amaranthus retroflexus [7] and in the assay on Brassica napus [8] were 0% and 10%, respectively.
As for `CCOCCOC(=O)/C(C#N)=C(\NCc1nc(-c2ccc(F)cc2)no1)C(C)C`, the inhibition of growth at 1500 g/ha in the assay on Digitaria sanguinalis [1] turned out to be 82.5%; with Digitaria sanguinalis [2], 0%; with Medicago sativa [3], 0%; with Brassica napus [4], 100%; in the assay on Medicago sativa [5] it was 10%; with Amaranthus retroflexus [6], 0%. Besides, the inhibition of growth at 1500 g/ha was found to be 100% with Amaranthus retroflexus [7] and 88% in the assay with Brassica napus [8].
`CCOCCOC(=O)/C(C#N)=C(/CC)NCc1nc(-c2ccc(F)cc2)no1`: the inhibition of growth at 1500 g/ha in the assay with Digitaria sanguinalis [1], in the assay on Digitaria sanguinalis [2], in the assay on Medicago sativa [3], in the assay with Brassica napus [4], in the assay with Medicago sativa [5] and in the assay on Amaranthus retroflexus [6] was 0% in each case. In addition, the inhibition of growth at 1500 g/ha in the assay on Amaranthus retroflexus [7] worked out at 0%; in the assay with Brassica napus [8], 15%.
Consider `CCOCCOC(=O)/C(C#N)=C(\NCc1ccc2ccccc2n1)SC`, for which the inhibition of growth at 1500 g/ha was 0% in the assay on Digitaria sanguinalis [1]; 0% with Digitaria sanguinalis [2]; 0% with Medicago sativa [3]; 35.6% in the assay with Brassica napus [4]; 15% with Medicago sativa [5]; 0% in the assay on Amaranthus retroflexus [6]. The inhibition of growth at 1500 g/ha in the assay with Amaranthus retroflexus [7] and in the assay with Brassica napus [8] was 0% in each case. The Activity in the assay on Cucumis sativus was determined as 60%.
As for `CCOCCOC(=O)/C(C#N)=C(/CC)NCc1ccc2ccccc2n1`, the inhibition of growth at 1500 g/ha in the assay on Digitaria sanguinalis [1] was found to be 0%; with Digitaria sanguinalis [2], 0%; in the assay on Medicago sativa [3], 0%; in the assay on Brassica napus [4], 8.5%; with Medicago sativa [5], 0%; in the assay on Amaranthus retroflexus [6], 20%. Further, the inhibition of growth at 1500 g/ha in the assay on Amaranthus retroflexus [7] and in the assay on Brassica napus [8] was 0% each time. The Activity with Cucumis sativus is 95.4%.
